From patent publication US20230265116A1, “DEGRADATION OF (EGFR) BY CONJUGATION OF EGFR INHIBITORS WITH E3 LIGASE LIGAND AND METHODS OF USE” (BEIGENE, LTD., priority 2020, published 2023)
Read-outs that look alike come from different tables or passages of the source.

What was measured:
Type in all cases: cell-based
EGFR WT (BaF3 WT cells) = molecular target: T1, EGFR WT (BaF3 WT cells) (Homo sapiens, UniProt P00533); experiment: EGFR degradation HTRF assay, BaF3 WT cells
T1 construct: expressed in transfected cells; host or cells: BaF3
Description: BaF3 WT(wild type), BaF3-LTC(L858R/T790M/C797S) and BaF3-DTC(Del19/T790M/C797S) cells are treated with compounds diluted in 0.2% DMSO cell culture medium and incubate for 16h, 37° C., 5% CO2, H1975-#36, H1975-#28, H1975-#23 and HCC827 cells are treated with compounds diluted in 0.2% DMSO cell culture medium on day 2, incubate for 16h, 37° C., 5% CO2.the final concentriation of compounds in all assay is start with 10 uM, 5-fold dilution, total 8 doses were included.
After 16h treatment, add HTRF lysis buffer to each well; seal the plate and incubate 1 hour at room temperature on a plate shaker; Once the cells are lysed, 16 μL of cell lysate are transferred to a PE 384-well HTRF detection plate; 4 μL of pre-mixed HTRF antibodies are added to each well; Cover the plate with a plate sealer, spin 1000 rpm for 1 min, Incubate overnight at room temperature; Read on BMG PheraStar with HTRF protocol (337 nm-665 nm-620 nm).
The inhibition (degradation) percentage of the compound was calculated by the following equation: Inhibition percentage of Compound=100-100×(Signal-low control)/(High control-low control), wherein signal=each test compound group
High control=Cell group with added DMSO and without compound, indicating microplate readings without EGFR degradation;
Dmax is the maximum percentage of inhibition (degradation).
The IC50 (DC50) value of a compound can be obtained by fitting the following equation
Y=Bottom+(TOP−Bottom)/(1+((IC50/X)^hillslope))
Wherein, X and Y are known values, and IC50, Hillslope, Top and Bottom are the parameters obtained by fitting with software. Y is the inhibition percentage (calculated from the equation), X is the concentration of the compound; IC50 is the concentration of the compound when the 50% inhibition is reached. The smaller the IC50 value is, the stronger the inhibitory ability of the compound is. Vice versa, the higher the IC50 value is, the weaker the inhibitory ability of the compound is; Hillslope represents the slope of the fitted curve, generally around 1*; Bottom represents the minimum value of the curve obtained by data fitting, which is generally 0%±20%; Top represents the maximum value of the curve obtained by data fitting, which is generally 100%±20%. The experimental data were fitted by calculating and analyzing with Dotmatics data analysis software.

[1] = tested on: EGFR Del19/T790M/C797S (BaF3-DTC cells); experiment: EGFR degradation HTRF assay, BaF3-DTC cells
Outline: (§1)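 Cells treated 16 h at 37 °C, 5% CO2 in medium with 0.2% DMSO; top final concentration 10 uM, 5-fold dilution, 8 doses. Lysates read by HTRF (665/620 nm); degradation % versus DMSO high control, DC50 from four-parameter fit, Dmax as maximal degradation.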

[2] = molecular target: T2, EGFR L858R/T790M/C797S (BaF3-LTC cells) (Homo sapiens, UniProt P00533, C797S/L858R/T790M); experiment: EGFR degradation HTRF assay, BaF3-LTC cells
T2 construct: expressed in transfected cells; host or cells: BaF3
Outline: as §1

[3] = tested on: EGFR Del19/T790M/C797S (H1975-clone #28); experiment: EGFR degradation HTRF assay, H1975-clone #28 DTC cells; conditions: H1975 # 28 DTC cells; for DC50: EGFR degradation, IC50 (DC50) from curve fit, read-out: DC50(nM) H1975 # 28 DTC; for Dmax (%) H1975 # 28 DTC: maximum percentage of inhibition (degradation)
Outline: (§2)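 Lentiviral Del19/T790M/C797S (clone #28) or Del19/C797S (clone #23) EGFR expressed in H1975 with endogenous EGFR knocked out. Cells treated 16 h, 37 °C, 8 doses, 5-fold from 10 uM top, 0.2% DMSO; EGFR read by HTRF after lysis. Degradation % vs DMSO control; DC50, Dmax from four-parameter fit.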

[4] = tested on: EGFR Del19/C797S (H1975-clone #23); experiment: EGFR degradation HTRF assay, H1975-clone #23 DC cells; conditions: 16h treatment; for H1975 #23 DC Dmax (%): maximum percentage of degradation; for DC50: H1975 #23 DC, read-out: H1975 #23 DC DC50
Outline: as §2

[5] = molecular target: T3, EGFR L858R/C797S (BaF3 LC cells) (Homo sapiens, UniProt P00533, C797S/L858R); experiment: EGFR degradation HTRF assay, BaF3 LC cells; conditions: BaF3 LC, 16h treatment; for Dmax: maximum percentage of degradation, read-out: BaF3 LC Dmax (%); for DC50: read-out: BaF3 LC DC50
T3 construct: expressed in transfected cells; host or cells: BaF3

[6] = BaF3-LTC cells, EGFR degradation, IC50 (DC50) from curve fit, read-out: DC50(nM) BaF3-LTC
[7] = BaF3-LTC cells, maximum percentage of inhibition (degradation), read-out: Dmax (%) BaF3-LTC

T2 sequence (P00533 25-1210 T790M/C797S/L858R): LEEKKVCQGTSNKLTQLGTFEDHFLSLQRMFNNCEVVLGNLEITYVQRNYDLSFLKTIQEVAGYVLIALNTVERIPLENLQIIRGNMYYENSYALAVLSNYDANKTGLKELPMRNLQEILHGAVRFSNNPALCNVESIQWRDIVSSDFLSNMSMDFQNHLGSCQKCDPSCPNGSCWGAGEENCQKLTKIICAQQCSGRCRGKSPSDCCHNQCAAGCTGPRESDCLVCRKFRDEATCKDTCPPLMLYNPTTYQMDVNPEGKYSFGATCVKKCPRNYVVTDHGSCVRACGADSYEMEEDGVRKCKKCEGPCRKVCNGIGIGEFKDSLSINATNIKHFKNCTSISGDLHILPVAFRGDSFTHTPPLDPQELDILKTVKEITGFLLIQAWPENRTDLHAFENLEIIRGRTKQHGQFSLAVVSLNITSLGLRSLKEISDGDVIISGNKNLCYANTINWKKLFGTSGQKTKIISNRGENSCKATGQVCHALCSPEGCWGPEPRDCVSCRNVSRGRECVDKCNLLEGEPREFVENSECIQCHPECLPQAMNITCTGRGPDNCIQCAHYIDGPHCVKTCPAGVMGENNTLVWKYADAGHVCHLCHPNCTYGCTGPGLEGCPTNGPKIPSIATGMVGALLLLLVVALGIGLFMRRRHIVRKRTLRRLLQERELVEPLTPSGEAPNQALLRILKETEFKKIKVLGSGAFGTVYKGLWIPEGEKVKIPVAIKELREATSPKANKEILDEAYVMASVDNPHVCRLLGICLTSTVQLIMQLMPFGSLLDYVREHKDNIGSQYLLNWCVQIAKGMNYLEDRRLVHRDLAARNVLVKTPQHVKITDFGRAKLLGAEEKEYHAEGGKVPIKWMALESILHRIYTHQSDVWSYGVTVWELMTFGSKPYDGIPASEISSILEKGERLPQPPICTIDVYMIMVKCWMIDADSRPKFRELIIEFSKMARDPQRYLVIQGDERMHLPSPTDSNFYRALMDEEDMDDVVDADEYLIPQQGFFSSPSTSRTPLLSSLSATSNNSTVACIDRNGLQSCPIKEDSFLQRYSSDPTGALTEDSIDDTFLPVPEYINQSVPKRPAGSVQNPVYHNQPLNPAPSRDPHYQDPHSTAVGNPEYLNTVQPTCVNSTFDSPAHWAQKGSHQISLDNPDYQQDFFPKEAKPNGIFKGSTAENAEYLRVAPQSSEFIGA
T3 sequence (P00533 25-1210 C797S/L858R): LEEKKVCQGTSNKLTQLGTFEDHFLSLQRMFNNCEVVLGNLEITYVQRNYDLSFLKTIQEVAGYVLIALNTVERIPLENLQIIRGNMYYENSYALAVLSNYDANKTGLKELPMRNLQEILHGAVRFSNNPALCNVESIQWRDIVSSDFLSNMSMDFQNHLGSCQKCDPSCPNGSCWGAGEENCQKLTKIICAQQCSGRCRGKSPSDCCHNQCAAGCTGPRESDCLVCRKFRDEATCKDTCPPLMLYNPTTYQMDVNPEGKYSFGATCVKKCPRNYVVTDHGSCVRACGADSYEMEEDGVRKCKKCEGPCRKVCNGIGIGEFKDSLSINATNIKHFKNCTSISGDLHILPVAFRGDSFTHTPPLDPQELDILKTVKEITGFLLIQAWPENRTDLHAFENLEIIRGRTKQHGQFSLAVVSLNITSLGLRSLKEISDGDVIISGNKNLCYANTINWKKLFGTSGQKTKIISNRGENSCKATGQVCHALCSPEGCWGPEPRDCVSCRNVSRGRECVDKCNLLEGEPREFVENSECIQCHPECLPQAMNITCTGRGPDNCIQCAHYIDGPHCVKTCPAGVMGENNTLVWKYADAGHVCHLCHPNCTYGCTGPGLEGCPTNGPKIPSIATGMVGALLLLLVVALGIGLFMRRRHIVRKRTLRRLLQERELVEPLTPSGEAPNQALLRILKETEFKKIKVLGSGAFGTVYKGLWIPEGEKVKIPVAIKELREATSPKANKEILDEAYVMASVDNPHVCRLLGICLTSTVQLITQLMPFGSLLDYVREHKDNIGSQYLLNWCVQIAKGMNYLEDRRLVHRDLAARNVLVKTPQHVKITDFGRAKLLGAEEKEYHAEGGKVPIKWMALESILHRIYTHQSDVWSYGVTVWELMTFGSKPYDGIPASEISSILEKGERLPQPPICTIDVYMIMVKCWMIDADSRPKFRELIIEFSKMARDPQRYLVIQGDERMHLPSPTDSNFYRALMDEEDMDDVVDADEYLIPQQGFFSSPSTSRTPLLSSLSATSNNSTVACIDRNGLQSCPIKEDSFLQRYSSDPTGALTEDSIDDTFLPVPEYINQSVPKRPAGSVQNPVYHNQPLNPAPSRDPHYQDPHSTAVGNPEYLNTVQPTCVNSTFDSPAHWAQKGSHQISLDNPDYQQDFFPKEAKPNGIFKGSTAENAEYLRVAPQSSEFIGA
T1 sequence (P00533 25-1210): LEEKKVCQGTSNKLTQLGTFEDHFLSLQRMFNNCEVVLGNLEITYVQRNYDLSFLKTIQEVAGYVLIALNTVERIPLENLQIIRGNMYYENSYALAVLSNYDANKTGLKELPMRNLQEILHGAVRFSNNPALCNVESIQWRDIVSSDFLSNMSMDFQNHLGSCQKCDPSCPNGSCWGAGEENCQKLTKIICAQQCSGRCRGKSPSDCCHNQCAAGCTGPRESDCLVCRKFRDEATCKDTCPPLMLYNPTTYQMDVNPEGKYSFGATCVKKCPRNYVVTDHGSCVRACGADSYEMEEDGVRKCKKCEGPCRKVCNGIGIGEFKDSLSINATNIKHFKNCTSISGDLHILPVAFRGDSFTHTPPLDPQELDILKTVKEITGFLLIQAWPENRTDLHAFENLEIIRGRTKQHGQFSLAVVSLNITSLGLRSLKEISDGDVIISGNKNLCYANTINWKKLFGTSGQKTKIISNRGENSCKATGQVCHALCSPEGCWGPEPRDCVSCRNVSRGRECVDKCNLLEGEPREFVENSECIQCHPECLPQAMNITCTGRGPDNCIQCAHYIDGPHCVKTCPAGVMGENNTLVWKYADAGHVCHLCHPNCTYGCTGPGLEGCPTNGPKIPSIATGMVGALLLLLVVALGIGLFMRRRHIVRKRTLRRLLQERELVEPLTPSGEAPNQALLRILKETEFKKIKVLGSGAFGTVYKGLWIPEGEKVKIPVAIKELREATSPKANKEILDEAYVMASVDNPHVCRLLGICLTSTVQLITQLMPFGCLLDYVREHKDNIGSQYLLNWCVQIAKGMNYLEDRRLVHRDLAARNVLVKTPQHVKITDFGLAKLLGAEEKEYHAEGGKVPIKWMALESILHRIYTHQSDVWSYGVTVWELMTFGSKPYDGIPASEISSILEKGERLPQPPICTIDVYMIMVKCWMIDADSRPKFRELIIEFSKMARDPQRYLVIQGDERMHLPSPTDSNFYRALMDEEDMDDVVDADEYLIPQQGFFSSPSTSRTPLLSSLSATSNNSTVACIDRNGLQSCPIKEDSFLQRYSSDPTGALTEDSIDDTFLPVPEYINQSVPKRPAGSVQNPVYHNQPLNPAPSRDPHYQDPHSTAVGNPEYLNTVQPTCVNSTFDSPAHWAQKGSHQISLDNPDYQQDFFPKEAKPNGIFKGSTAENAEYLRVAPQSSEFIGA

| Compound | DC50 [2, 6] | Dmax [2, 7] | DC50 [3] | DC50 [4] | Dmax [5] | DC50 [5] | Dmax (EGFR WT (BaF3 WT cells); BaF3, read-out: WT Dmax (%)) | DC50 (EGFR WT (BaF3 WT cells); BaF3 WT, 16h treatment) | DTC Dmax (%) ([1]; 16h treatment, maximum percentage of degradation) | DC50 ([1]; read-out: DTC DC50, 16h treatment) | Dmax ([2]; BaF3-LTC, 16h treatment, maximum percentage of degradation, read-out: LTC Dmax (%)) | DC50 ([2]; BaF3-LTC, 16h treatment, read-out: LTC DC50) | Dmax (%) H1975 # 28 DTC [3] | H1975 #23 DC Dmax (%) [4] |
| --- | --- | --- | --- | --- | --- | --- | --- | --- | --- | --- | --- | --- | --- | --- |
| CCc1cc(Nc2ncc(Br)c(Nc3ccc4nccnc4c3P(C)(C)=O)n2)c(OC)cc1N1CCC(N2CCN(CCN(C)c3ccc4c(c3)CN(C3CCC(=O)NC3=O)C4=O)CC2)CC1 (stereo not shown) [Example 71, 3-(5-((2-(4-(1-(4-((5-bromo-4-((5-(dimethylphosphoryl)quinoxalin-6-yl)amino)pyrimidin-2-yl)amino)-2-ethyl-5-methoxyphenyl)piperidin-4-yl)piperazin-1-yl)ethyl)(methyl)amino)-1-oxoisoindolin-2-yl)piperidine-2,6-dione] | – | – | – | – | – | – | 31.4% | > 10000 nM | 81.19% | 7.52 nM | 80% | 11.5 nM | – | – |
| CCOc1cc(N2CCC(N3CCN(CCc4cc(F)c(C5CCC(=O)NC5=O)c(F)c4)CC3)CC2)c(CC)cc1Nc1ncc(Br)c(Nc2ccc3nc(C)ccc3c2P(C)(C)=O)n1 (stereo not shown) [Example 482, 3-(4-(2-(4-(1-(4-((5-bromo-4-((5-(dimethylphosphoryl)-2-methylquinolin-6-yl)amino)pyrimidin-2-yl)amino)-5-ethoxy-2-ethylphenyl)piperidin-4-yl)piperazin-1-yl)ethyl)-2,6-difluorophenyl)piperidine-2,6-dione] | 12.9 nM | 88.7% | 1.86 nM | 7.2 nM | 73.4% | 50.8 nM | – | – | – | – | – | – | 69.65% | 70.91% |
| CCc1ccc2c(P(C)(C)=O)c(Nc3nc(Nc4cc(CC)c(N5CCC(N6CCN(CCc7cc(F)c(C8CCC(=O)NC8=O)c(F)c7)CC6)CC5)cc4OC)ncc3Br)ccc2n1 (stereo not shown) [Example 485, 3-(4-(2-(4-(1-(4-((5-bromo-4-((5-(dimethylphosphoryl)-2-ethylquinolin-6-yl)amino)pyrimidin-2-yl)amino)-2-ethyl-5-methoxyphenyl)piperidin-4-yl)piperazin-1-yl)ethyl)-2,6-difluorophenyl)piperidine-2,6-dione] | 26.9 nM | – | 2.78 nM | 10.4 nM | – | 35.1 nM | – | – | – | – | – | – | 70.65% | 82.7% |
| CCOc1cc(N2CCC(N3CCN(CCc4cc(F)c([C@H]5CCC(=O)NC5=O)c(F)c4)CC3)CC2)c(CC)cc1Nc1ncc(Br)c(Nc2ccc3nc(CC)ccc3c2P(C)(C)=O)n1 [Example 483, (R)-3-(4-(2-(4-(1-(4-((5-bromo-4-((5-(dimethylphosphoryl)-2-ethylquinolin-6-yl)amino)pyrimidin-2-yl)amino)-5-ethoxy-2-ethylphenyl)piperidin-4-yl)piperazin-1-yl)ethyl)-2,6-difluorophenyl)piperidine-2,6-dione] | 26.6 nM | – | 2.02 nM | 7.19 nM | – | 69 nM | – | – | – | – | – | – | 81.31% | 70.71% |

Continued, in another order:

| DC50 [2, 6] | Dmax [2, 7] | DC50 [3] | DC50 [4] | Dmax [5] | DC50 [5] | Compound | Dmax (EGFR WT (BaF3 WT cells); BaF3, read-out: WT Dmax (%)) | DC50 (EGFR WT (BaF3 WT cells); BaF3 WT, 16h treatment) | DTC Dmax (%) ([1]; 16h treatment, maximum percentage of degradation) | DC50 ([1]; read-out: DTC DC50, 16h treatment) | Dmax ([2]; BaF3-LTC, 16h treatment, maximum percentage of degradation, read-out: LTC Dmax (%)) | DC50 ([2]; BaF3-LTC, 16h treatment, read-out: LTC DC50) | Dmax (%) H1975 # 28 DTC [3] | H1975 #23 DC Dmax (%) [4] |
| --- | --- | --- | --- | --- | --- | --- | --- | --- | --- | --- | --- | --- | --- | --- |
| 3.1 nM | – | 0.601 nM | 2.96 nM | – | 1.59 nM | CCc1ncc2c(P(C)(C)=O)c(Nc3nc(Nc4cc(CC)c(N5CCC(N6CCN(C(=O)[C@@H]7CCN(c8cc(F)c([C@H]9CCC(=O)NC9=O)c(F)c8)C7)CC6)CC5)cc4OC)ncc3Br)ccc2n1 [Example 549, (R)-3-(4-((R)-3-(4-(1-(4-((5-bromo-4-((5-(dimethylphosphoryl)-2-ethylquinazolin-6-yl)amino)pyrimidin-2-yl)amino)-2-ethyl-5-methoxyphenyl)piperidin-4-yl)piperazine-1-carbonyl)pyrrolidin-1-yl)-2,6-difluorophenyl)piperidine-2,6-dione] | – | – | – | – | – | – | 88.85% | 63.66% |
| 8.4 nM | – | 1.08 nM | 7.94 nM | – | 53.8 nM | CCOc1cc(N2CCC(N3CCN(C(=O)[C@@H]4CCN(c5cc(F)c([C@H]6CCC(=O)NC6=O)c(F)c5)C4)CC3)CC2)c(CC)cc1Nc1ncc(Br)c(Nc2ccc3nc(C)c(F)cc3c2P(C)(C)=O)n1 [Example 577, (R)-3-(4-((R)-3-(4-(1-(4-((5-bromo-4-((5-(dimethylphosphoryl)-3-fluoro-2-methylquinolin-6-yl)amino)pyrimidin-2-yl)amino)-5-ethoxy-2-ethylphenyl)piperidin-4-yl)piperazine-1-carbonyl)pyrrolidin-1-yl)-2,6-difluorophenyl)piperidine-2,6-dione] | – | – | – | – | – | – | 87.91% | 64.13% |
| 4.13 nM | – | 0.57 nM | 7.68 nM | – | 16.4 nM | CCc1ccc2c(P(C)(C)=O)c(Nc3nc(Nc4cc(CC)c(N5CCC(N6CCN(C(=O)C7CN(c8cc(F)c([C@H]9CCC(=O)NC9=O)c(F)c8)C7)CC6)CC5)cc4OC)ncc3Br)ccc2n1 [Example 755, (R)-3-(4-(3-(4-(1-(4-((5-bromo-4-((5-(dimethylphosphoryl)-2-ethylquinolin-6-yl)amino)pyrimidin-2-yl)amino)-2-ethyl-5-methoxyphenyl)piperidin-4-yl)piperazine-1-carbonyl)azetidin-1-yl)-2,6-difluorophenyl)piperidine-2,6-dione] | – | – | – | – | – | – | 84.62% | 69.09% |
| 3.34 nM | – | 0.759 nM | 3.29 nM | – | 1.49 nM | CCOc1cc(N2CCC(N3CCN(CCc4cccc5c4C(C)(C)C(=O)N5C4CCC(=O)NC4=O)CC3)CC2)c(CC)cc1Nc1ncc(Br)c(Nc2ccc3c(=O)n(CC)ncc3c2P(C)(C)=O)n1 (stereo not shown) [Example 501, 3-(4-(2-(4-(1-(4-((5-bromo-4-((5-(dimethylphosphoryl)-2-ethyl-1-oxo-1,2-dihydrophthalazin-6-yl)amino)pyrimidin-2-yl)amino)-5-ethoxy-2-ethylphenyl)piperidin-4-yl)piperazin-1-yl)ethyl)-3,3-dimethyl-2-oxoindolin-1-yl)piperidine-2,6-dione] | – | – | – | – | – | – | 85.93% | 65.52% |
| 2.42 nM | 84.8% | 0.413 nM | 1.11 nM | 92% | 1.11 nM | CCOc1cc(N2CCC(N3CCN(CCc4ccc5c(c4)oc(=O)n5C4CCC(=O)NC4=O)CC3)CC2)c(CC)cc1Nc1ncc(Br)c(Nc2cc(F)c3nc(CC)ccc3c2P(C)(C)=O)n1 (stereo not shown) [Example 500, 3-(6-(2-(4-(1-(4-((5-bromo-4-((5-(dimethylphosphoryl)-2-ethyl-8-fluoroquinolin-6-yl)amino)pyrimidin-2-yl)amino)-5-ethoxy-2-ethylphenyl)piperidin-4-yl)piperazin-1-yl)ethyl)-2-oxobenzo[d]oxazol-3(2H)-yl)piperidine-2,6-dione] | – | – | – | – | – | – | 71.9% | 55.74% |
